In patent US10947213B1 (Merck Patent GmbH, priority 2015, dated 2021) one finds IC50 data, which are given here for 27 molecules.

Molecules are shown by their SMILES. Counter-ions that a name gives are not always drawn.

The target in this test is T1, TLR7/NFKb HEK cells (Homo sapiens, UniProt Q9NYK1).
T1 construct: expressed in transfected cells; host or cells: HEK cells (TLR7/NFKb reporter line)
T1 sequence (Q9NYK1 27-1049): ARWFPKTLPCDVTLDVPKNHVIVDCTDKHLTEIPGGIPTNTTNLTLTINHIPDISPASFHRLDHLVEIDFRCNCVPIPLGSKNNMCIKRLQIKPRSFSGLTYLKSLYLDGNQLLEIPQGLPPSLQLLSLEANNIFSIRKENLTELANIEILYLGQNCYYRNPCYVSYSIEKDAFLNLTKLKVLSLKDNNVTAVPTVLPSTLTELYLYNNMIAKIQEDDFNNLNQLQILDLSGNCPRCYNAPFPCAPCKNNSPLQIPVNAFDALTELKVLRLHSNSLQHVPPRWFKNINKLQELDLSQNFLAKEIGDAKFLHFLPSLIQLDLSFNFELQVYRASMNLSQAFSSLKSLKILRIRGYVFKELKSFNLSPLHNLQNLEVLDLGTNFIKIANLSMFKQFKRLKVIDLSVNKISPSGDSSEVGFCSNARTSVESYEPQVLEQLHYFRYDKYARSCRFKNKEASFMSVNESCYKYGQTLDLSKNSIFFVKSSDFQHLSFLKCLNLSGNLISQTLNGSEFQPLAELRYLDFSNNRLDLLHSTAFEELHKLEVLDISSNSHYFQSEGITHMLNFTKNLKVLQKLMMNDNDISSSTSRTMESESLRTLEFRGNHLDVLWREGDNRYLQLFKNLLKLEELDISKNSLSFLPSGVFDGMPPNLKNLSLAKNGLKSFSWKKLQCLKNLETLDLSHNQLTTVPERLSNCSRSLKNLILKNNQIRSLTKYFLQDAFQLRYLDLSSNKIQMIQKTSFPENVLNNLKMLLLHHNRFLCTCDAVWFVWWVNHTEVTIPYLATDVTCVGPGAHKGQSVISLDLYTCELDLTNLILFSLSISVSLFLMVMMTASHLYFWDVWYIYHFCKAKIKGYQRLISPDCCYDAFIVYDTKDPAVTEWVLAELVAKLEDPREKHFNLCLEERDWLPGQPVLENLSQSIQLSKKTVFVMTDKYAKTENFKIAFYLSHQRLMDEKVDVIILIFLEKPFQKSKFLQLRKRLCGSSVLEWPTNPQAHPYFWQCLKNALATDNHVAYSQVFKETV
The test can be described thus: HEK Cell Assay (TLR7/NFKb reporter, Steady-Glo luciferase readout). In kind it is cell-based. The settings on record: 30 min compound preincubation, then R*48 agonist for 5 hours, read-out: Potency. In a few lines: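 Steady-Glo luminescence after 5 h stimulation with R*48 agonist, following 30 min compound preincubation. Assay run in HEK cells carrying a TLR7/NFKb luciferase reporter, plated at 5000 cells/well and grown 24 h at 37° C (10% CO2) before treatment.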

Take `C[C@H]1C[C@@H](NCC(=O)O)CN(c2ccc(C(F)(F)F)c3ncccc23)C1` [Compound 571, [(3R,5S)-5-Methyl-1-(8-trifluoromethyl-quinolin-5-yl)-piperidin-3-ylamino]-acetic acid]: the IC50 lay within 1000 to 10000 nM.

Take `CC(C)[C@@H](O)C(=O)N[C@H]1CN(c2ccc(C#N)c3nccnc23)CC(C)(C)C1` [Compound 213, (2R)—N-[(3R)-1-(8-cyanoquinoxalin-5-yl)-5,5-dimethylpiperidin-3-yl]-2-hydroxy-3-methylbutanamide]: the IC50 was below 1000 nM.

Regarding `C[C@H]1C[C@@H](N)CN(c2c(F)cc(C#N)c3nccnc23)C1` [Compound 342, 8-[(3R,5S)-3-amino-5-methylpiperidin-1-yl]-7-fluoroquinoxaline-5-carbonitrile], the IC50 fell in the range of 1000 to 10000 nM.

On to `N#Cc1ccc(N2C[C@H](NC(=O)C3CCN(C4CC4)CC3)C[C@H](C(F)(F)F)C2)c2cccnc12` [Compound 578, 1-Cyclopropyl-piperidine-4-carboxylic acid [(3R,5S)-1-(8-cyano-quinolin-5-yl)-5-trifluoromethyl-piperidin-3-yl]-amide], for which the IC50 is below 1000 nM.

With `C[C@H]1C[C@@H](NC(=O)CO)CN(c2ccc(C#N)c3nccnc23)C1` [Compound 97, N-[(3R,5S)-1-(8-cyanoquinoxalin-5-yl)-5-methylpiperidin-3-yl]-2-hydroxyacetamide], the IC50 is below 1000 nM.

`N#Cc1ccc(N2CC(N)CC(C(F)(F)F)C2)c2nccnc12` (single isomer, unassigned) [Compound 82]: the IC50 is below 1000 nM.

On to `CC(C(=O)NC1CN(c2ccc(C#N)c3nccnc23)CC(F)(F)C1)N1CCC1` (single isomer, unassigned) [Compound 507], for which the IC50 was below 1000 nM.

For the molecule `C[C@H]1C[C@@H](NC2CCN(C)C2=O)CN(c2ccc(C(F)(F)F)c3ncccc23)C1` (single isomer, unassigned) [Compound 238], the IC50 is below 1000 nM.

Regarding `Cc1ncc(N2C[C@@H](C)C[C@@H](NC(=O)CC3CN(C)C3)C2)c2cccnc12` [Compound 556, 2-(1-Methyl-azetidin-3-yl)-N-[(3R,5S)-5-methyl-1-(8-methyl-[1,7]naphthyridin-5-yl)-piperidin-3-yl]-acetamide], the IC50 fell in the range of 1000 to 10000 nM.

`COCCN[C@@H]1C[C@H](C)CN(c2ccc(C(F)(F)F)c3ncccc23)C1` [Compound 196, (3R,5S)—N-(2-methoxyethyl)-5-methyl-1-[8-(trifluoromethyl)quinolin-5-yl]piperidin-3-amine]: the IC50 was below 1000 nM.

In the case of `C[C@H]1C[C@@H](NC(=O)CN(C)CCO)CN(c2ccc(C#N)c3nccnc23)C1` [Compound 144, N-[(3R,5S)-1-(8-cyanoquinoxalin-5-yl)-5-methylpiperidin-3-yl]-2-[(2-hydroxyethyl)(methyl)amino]acetamide], the IC50 was below 1000 nM.

As for `C[C@H]1C[C@@H](NC(=O)C(N)C2CC2)CN(c2ccc(C(F)(F)F)c3ncccc23)C1` (stereo partly drawn) [Compound 282, 2-amino-2-cyclopropyl-N-[(3R,5S)-5-methyl-1-[8-(trifluoromethyl)quinolin-5-yl]piperidin-3-yl]acetamide], the IC50 is below 1000 nM.

With `CC(C)(C)CC(=O)N[C@H]1C[C@@H](C(F)(F)F)CN(c2ccc(C#N)c3nccnc23)C1` (relative stereo) [Compound 85, cis-N-[1-(8-cyanoquinoxalin-5-yl)-5-(trifluoromethyl)piperidin-3-yl]-3,3-dimethylbutanamide], the IC50 is below 1000 nM.

As to `CN(C)CC(=O)N[C@H]1CN(c2ccc(C#N)c3nccnc23)CC(C)(C)C1` [Compound 217, N-[(3R)-1-(8-cyanoquinoxalin-5-yl)-5,5-dimethylpiperidin-3-yl]-2-(dimethylamino)acetamide], the IC50 is below 1000 nM.

As to `CC(C)(N)CC(=O)NC1CN(c2ccc(C#N)c3nccnc23)CC(F)(F)C1` (stereo not drawn) [Compound 505, 3-Amino-N-[1-(8-cyano-quinoxalin-5-yl)-5,5-difluoro-piperidin-3-yl]-3-methyl-butyramide hydrochloride], the IC50 is 1000 to 10000 nM.

`N[C@H]1C[C@@H](C2CC2)CN(c2ccc(C(F)(F)F)c3nccnc23)C1` (relative stereo) [Compound 330, cis-5-cyclopropyl-1-[8-(trifluoromethyl)quinoxalin-5-yl]piperidin-3-amine]: the IC50 was below 1000 nM.

With `C[C@H]1C[C@@H](NC(=O)CNC(C)(C)C)CN(c2ccc(C#N)c3nccnc23)C1` [Compound 142, 2-(tert-butylamino)-N-[(3R,5S)-1-(8-cyanoquinoxalin-5-yl)-5-methylpiperidin-3-yl]acetamide], the IC50 is below 1000 nM.

With `C[C@H]1C[C@@H](NC(=O)CC2CCN(C)C2)CN(c2ccc(C(F)(F)F)c3nccnc23)C1` (stereo partly drawn) [Compound 295, N-[(3R,5S)-5-methyl-1-[8-(trifluoromethyl)quinoxalin-5-yl]piperidin-3-yl]-2-(1-methylpyrrolidin-3-yl)acetamide], the IC50 is below 1000 nM.

Consider `C[C@H]1C[C@@H](NC(=O)CC2CNC2)CN(c2ccc(C(F)(F)F)c3nccnc23)C1` [Compound 300, 2-(azetidin-3-yl)-N-[(3R,5S)-5-methyl-1-[8-(trifluoromethyl)quinoxalin-5-yl]piperidin-3-yl]acetamide], for which the IC50 was below 1000 nM.

For the molecule `CCN(CC)C(=O)CCC(=O)N[C@@H]1C[C@H](C)CN(c2ccc(C(F)(F)F)c3ncccc23)C1` [Compound 575, N,N-Diethyl-N′-[(3R,5S)-5-methyl-1-(8-trifluoromethyl-quinolin-5-yl)-piperidin-3-yl]-succinamide], the IC50 was 1000 to 10000 nM.

In the case of `C[C@@H]1CN(c2ccc(C#N)c3ncncc23)C[C@H](C)O1` [Compound 393, cis-5-(2,6-Dimethyl-morpholin-4-yl)-quinazoline-8-carbonitrile], the IC50 lay in the range of 1000 to 10000 nM.

In the case of `COC(C)C(=O)N[C@@H]1C[C@H](C)CN(c2ccnc3nccnc23)C1` (single isomer, unassigned) [Compound 161], the IC50 is above 10000 nM.

For `CC(C)(C)NCC(=O)NCC1CCN(c2ccc(C#N)c3ncccc23)CC1` [Compound 413, 2-tert-Butylamino-N-[1-(8-cyano-quinolin-5-yl)-piperidin-4-ylmethyl]-acetamide], the IC50 was below 1000 nM.

On to `C[C@H]1C[C@@H](NC(=O)CC(C)(C)CN)CN(c2ccc(C(F)(F)F)c3ncccc23)C1` [Compound 291, 4-amino-3,3-dimethyl-N-[(3R,5S)-5-methyl-1-[8-(trifluoromethyl)quinolin-5-yl]piperidin-3-yl]butanamide], for which the IC50 was below 1000 nM.

Regarding `CC1(C)C[C@@H](N)CN(c2ccc(C#N)c3nccnc23)C1` [Compound 210, 8-[(5R)-5-amino-3,3-dimethylpiperidin-1-yl]quinoxaline-5-carbonitrile hydrochloride], the IC50 was below 1000 nM.

`C[C@H]1C[C@@H](NC(=O)CC2CCCN(C)C2)CN(c2ccc(C(F)(F)F)c3ncccc23)C1` (stereo partly drawn) [Compound 279, N-[(3R,5S)-5-methyl-1-[8-(trifluoromethyl)quinolin-5-yl]piperidin-3-yl]-2-(1-methylpiperidin-3-yl)acetamide]: the IC50 was below 1000 nM.

Take `C[C@H]1C[C@@H](NC(=O)CN(C)C)CN(c2ccc(C(F)F)c3ncccc23)C1` [Compound 209, N-[(3R,5S)-1-[8-(difluoromethyl)quinolin-5-yl]-5-methylpiperidin-3-yl]-2-(dimethylamino)acetamide]: the IC50 is below 1000 nM.
